Measured values taken from patent publication US20090131527A1, “NOVEL ANTHRANILIC ACID DERIVATIVES AND CHLORIDE CHANNEL BLOCKING AGENT CONTAINING THE SAME” (Korea Institute of Science and Technology, priority 2007, published 2009).

Target: Cl− channel activated by Ca2+ (calcium ion-activated chloride channels) (Xenopus laevis, UniProt B5SVV6)
Assay: Two-electrode voltage clamp recording of Ca2+-activated chloride current in Xenopus Laevis eggs (ionomycin/thapsigargin treated)
Assay type: cell-based
Settings: for IC50: calcium ion-activated chloride channel current in Xenopus Laevis eggs, activated with 5 mM Ca2+, 15 s pretreatment with chemical; for inhibitory activity of calcium activated chloride channel current (in words): compared to the conventional anthranilic acid derivatives flufenamic acid and mefenamic acid / known inhibitors
Experimental: The prepared eggs were treated with 10 μM ionomycin (Sigma) for 30 min.
An intracellular solution was prepared by adding 0.5 mM EGTA and 1 μM Chelerythrine (Sigma) into a 1 M KCl solution, which was filled in glass microelectrodes. One of the above prepared eggs was placed on the chamber and two electrodes were inserted into opposite sides of the egg while the recording solution was poured. Current was measured by performing two-electrode voltage clamp recording according to a protocol suitable for the purpose of the experiment.
In order to activate a Ca^2+-dependent chloride channel, 5 mM Ca^2+ was treated first to the above eggs for 5 seconds. After being washed with the above recording solution for 50 seconds, and pretreated with the chemicals in the below Table 1 (treated in the order of […]) for 15 seconds, the eggs were treated with 5 mM Ca^2+ and the above chemicals (same amount as above) to measure the inhibitory concentrations of each chemical by comparing the current measured with 5 mM Ca^2+.

Chain of Cl− channel activated by Ca2+ (calcium ion-activated chloride channels) (B5SVV6 entry or part of it): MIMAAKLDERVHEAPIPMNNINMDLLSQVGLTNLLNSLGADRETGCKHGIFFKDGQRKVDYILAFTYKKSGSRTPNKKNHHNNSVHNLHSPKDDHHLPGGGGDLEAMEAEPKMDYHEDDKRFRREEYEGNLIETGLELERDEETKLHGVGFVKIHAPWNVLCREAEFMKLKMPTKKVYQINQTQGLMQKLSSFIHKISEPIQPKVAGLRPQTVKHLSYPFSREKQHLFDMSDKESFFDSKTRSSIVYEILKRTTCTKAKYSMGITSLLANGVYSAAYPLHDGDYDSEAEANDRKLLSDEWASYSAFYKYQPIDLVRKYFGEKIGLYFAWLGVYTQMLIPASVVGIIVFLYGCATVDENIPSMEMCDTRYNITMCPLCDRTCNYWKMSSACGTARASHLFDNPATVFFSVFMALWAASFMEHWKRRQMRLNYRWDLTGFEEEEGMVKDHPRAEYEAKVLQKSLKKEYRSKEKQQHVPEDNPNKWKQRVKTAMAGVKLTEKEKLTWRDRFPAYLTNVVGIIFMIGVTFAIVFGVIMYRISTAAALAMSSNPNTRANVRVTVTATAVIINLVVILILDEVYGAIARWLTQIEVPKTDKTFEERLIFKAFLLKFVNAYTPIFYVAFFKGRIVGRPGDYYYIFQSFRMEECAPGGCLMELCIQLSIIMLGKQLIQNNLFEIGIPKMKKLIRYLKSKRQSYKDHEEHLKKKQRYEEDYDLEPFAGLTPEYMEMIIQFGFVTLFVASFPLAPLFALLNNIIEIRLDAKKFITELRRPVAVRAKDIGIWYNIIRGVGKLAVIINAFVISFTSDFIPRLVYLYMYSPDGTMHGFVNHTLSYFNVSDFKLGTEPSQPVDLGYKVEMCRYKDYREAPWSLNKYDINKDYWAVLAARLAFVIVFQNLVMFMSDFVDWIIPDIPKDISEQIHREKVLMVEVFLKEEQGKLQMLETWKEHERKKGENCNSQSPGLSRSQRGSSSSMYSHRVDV

SMILES	IC50 [µM]	inhibitory activity of calcium activated chloride channel current (in words)
O=C(O)c1cc([N+](=O)[O-])ccc1Nc1ccc([N+](=O)[O-])cc1 [5-Nitro-N-(4-nitrophenyl)anthranilic acid]	15.4	notably high inhibitory activity
O=C(O)c1ccccc1Nc1ccc([N+](=O)[O-])cc1 [N-(4-Nitrophenyl)anthranilic acid]	17.8	notably high inhibitory activity
O=C(O)c1ccccc1Nc1cccc([N+](=O)[O-])c1 [N-(3-Nitrophenyl)anthranilic acid]	32.1	notably high inhibitory activity
O=C(O)c1ccccc1Nc1ccc(F)c(C(F)(F)F)c1 [N-(4-Fluoro-3-trifluoromethylphenyl)anthranilic acid]	14.7	notably high inhibitory activity
O=S(=O)(O)c1cc(N=C=S)ccc1C=Cc1ccc(N=C=S)cc1S(=O)(=O)O [DIDS, disodium 4,4′-diisothiocyano-2,2′-stilbenedisulphonic acid, reference compound]	10.7	–
O=C(O)c1ccccc1Nc1ccc(F)cc1 [N-(4-Fluorophenyl)anthranilic acid]	63.1	–
O=C(O)c1cccnc1Nc1cccc(C(F)(F)F)c1 [Niflumic acid, reference compound]	37.3	–
O=C(O)c1ccccc1Nc1ccccc1 [N-Phenylanthranilic acid, reference compound]	88.1	–
Cc1cccc(Nc2ccccc2C(=O)O)c1C [Mefenamic acid, reference compound]	44.5	–
O=C(O)c1ccccc1Nc1ccccc1C(F)(F)F [N-(2-Trifluoromethylphenyl)anthranilic acid]	29.5	notably high inhibitory activity
O=C(O)c1ccccc1Nc1ccc(Cl)cc1 [N-(4-Chlorophenyl)anthranilic acid]	11.3	notably high inhibitory activity
O=C(O)c1cc([N+](=O)[O-])ccc1NCCCc1ccccc1 [NPPB, 5-nitro-2-(3-phenylpropylamino)benzoic acid, reference compound]	32.3	–
Cc1ccc(Nc2ccccc2C(=O)O)cc1 [N-(4-Methylphenyl)anthranilic acid]	55.3	–
O=C(O)c1c2ccccc2cc2ccccc12 [9-AC, 9-anthracene carboxylic acid, reference compound]	94.3	–
CC(C)(C)c1ccc(Nc2ccccc2C(=O)O)cc1 [N-(4-tert-Butylphenyl)anthranilic acid]	22.9	notably high inhibitory activity
CC(C)c1ccc(Nc2ccccc2C(=O)O)cc1 [N-(4-Isopropylphenyl)anthranilic acid]	17	–
O=C(O)c1ccccc1Nc1cccc(C(F)(F)F)c1 [Flufenamic acid, reference compound]	35.4	–
COc1ccc(Nc2ccccc2C(=O)O)cc1 [N-(4-Methoxyphenyl)anthranilic acid]	102	–
O=C(O)c1ccccc1Nc1ccc(C(F)(F)F)cc1 [N-(4-Trifluoromethylphenyl)anthranilic acid]	6	notably high inhibitory activity
